Experimental data taken from patent publication US20050090524A1, “Novel adamantane derivatives” (priority 2002, published 2005).
Where a name gives a salt, the structure may show the parent alone.

| SMILES | melting point |
| --- | --- |
| CNCCCN(C)c1ccc2c(C(=O)NCC34CC5CC(CC(C5)C3)C4)c(Cl)ccc2n1 (as salt: TFA) [Example 208, N-(1-Adamantylmethyl)-6-chloro-2-{methyl[3-(methylamino)propyl]amino}quinoline-5-carboxamide] | 195 to 200 °C |
| CNCCCc1cccc2c(C(=O)NCC34CC5CC(CC(C5)C3)C4)ccnc12 (as salt: hydrochloride) | 243 to 246 °C (dec.) |
| Cc1ccc2nc(N3CCN(CCO)CC3)ccc2c1NC(=O)CC12CC3CC(CC(C3)C1)C2 (as salt: hydrochloride) | 224 °C |
| Cc1ccc2nc(N3CCC(N)CC3)ccc2c1NC(=O)CC12CC3CC(CC(C3)C1)C2 (as salt: hydrochloride) | 295 °C |
| Cc1ccc2nc(N3CC[C@H](N)C3)ccc2c1NC(=O)CC12CC3CC(CC(C3)C1)C2 (as salt: hydrochloride) | 291 °C |
| Cc1ccc2nc(N3CC[C@H](NC(=O)N4CC[C@H](N)C4)C3)ccc2c1NC(=O)CC12CC3CC(CC(C3)C1)C2 (as salt: hydrochloride) | 270 °C |
| O=C(NCC12CC3CC(CC(C3)C1)C2)c1c(Cl)ccc2nc(CN3CCNCC3)ccc12 (as salt: hydrochloride) [Example 170, N-(1-Adamantylmethyl)-6-chloro-2-(piperazin-1-ylmethyl)quinoline-5-carboxamide Hydrochloride] | 208 °C (dec.) |
| Cc1ccc2nc(N3CCNCC3)ccc2c1NC(=O)CC12CC3CC(CC(C3)C1)C2 (as salt: hydrochloride) [Example 178, 2-(1-Adamantyl)-N-(6methyl-2-piperazin-1-ylquinolin-5-yl)acetamide Dihydrochloride] | 276 °C |
| Cc1ccc2nc(N3CCC(NCCO)CC3)ccc2c1NC(=O)CC12CC3CC(CC(C3)C1)C2 (as salt: hydrochloride) [Example 181, 2-(1-Adamantyl)-N-(2-{4-[(2-hydroxyethyl)amino]piperidin-1-yl}-6-methylquinolin-5-yl)acetamide Dihydrochloride] | 306 °C |
| O=C(CC12CC3CC(CC(C3)C1)C2)Nc1c(Cl)ccc2nc(N3CCNCC3)ccc12 (as salt: hydrochloride) [Example 207, 2-(1-Adamantyl)-N-(6-chloro-2-piperazin-1-ylquinolin-5-yl)acetamide] | 280 to 283 °C |
| O=C(NCC12CC3CC(CC(C3)C1)C2)c1cccc2ncccc12 (as salt: trifluoroacetate) | 125 to 127 °C (dec.) |
| O=C(CC12CC3CC(CC(C3)C1)C2)Nc1c(Cl)ccc2nc(CN[C@@H]3CCNC3)ccc12 (as salt: trifluoroacetate) | 90 to 91 °C |
| O=C(CC12CC3CC(CC(C3)C1)C2)Nc1c(Cl)ccc2nc(CN3CCNCC3)ccc12 (as salt: trifluoroacetate) | 132 to 136 °C |
| Cc1ccc2nc(N(C)CCN(C)C)ccc2c1NC(=O)CC12CC3CC(CC(C3)C1)C2 (as salt: trifluoroacetic acid salt) [Example 14, 2-(1-Adamantyl)-N-{2-[[2-(dimethylamino)ethyl](methyl)amino]-6-methylquinolin-5-yl}acetamide] | 193 to 195 °C |
| O=C(CC12CC3CC(CC(C3)C1)C2)Nc1c(Cl)ccc2ncccc12 [Example 5, 2-(1-Adamantyl)-N-(6-chloroquinolin-5-yl)acetamide] | 219 to 220 °C |

Now from value to molecule:

| melting point | SMILES |
| --- | --- |
| 150 to 152 °C | O=C(NCC12CC3CC(CC(C3)C1)C2)c1cccc2nc(CCCNCCCO)ccc12 (as salt: hydrochloride) |
| 227 to 230 °C | Cc1ccc2nc(NCCNCCO)ccc2c1NC(=O)CC12CC3CC(CC(C3)C1)C2 (as salt: hydrochloride) |
| 219 to 223 °C | O=C(CC12CC3CC(CC(C3)C1)C2)Nc1c(Cl)ccc2nc(NCCNCCO)ccc12 (as salt: hydrochloride) |
| 147 to 150 °C | O=C(CC12CC3CC(CC(C3)C1)C2)Nc1c(Cl)ccc2nc(CC[C@@H](O)CO)ccc12 (as salt: hydrochloride) |
| 232 to 234 °C | CNCCNc1ccc2c(NC(=O)CC34CC5CC(CC(C5)C3)C4)c(Cl)ccc2n1 (as salt: hydrochloride) |
| 264 to 266 °C | O=C(CC12CC3CC(CC(C3)C1)C2)Nc1c(Cl)ccc2nc(NCCCNCCO)ccc12 (as salt: hydrochloride) |
| 158 to 160 °C | CNCCCc1ccc2c(C(=O)NCC34CC5CC(CC(C5)C3)C4)cccc2n1 (as salt: hydrochloride) |
| 184 to 185 °C | CNCCCc1ccc2c(C(=O)NCC34CC5CC(CC(C5)C3)C4)c(Cl)ccc2n1 (as salt: hydrochloride) [Example 167, N-(1-Adamantylmethyl)-6-chloro-2-[3-(methylamino)propyl]quinoline-5-carboxamide Sesquihydrochloride] |
| 150 to 155 °C | CCNCCCc1ccc2c(C(=O)NCC34CC5CC(CC(C5)C3)C4)cccc2n1 (as salt: hydrochloride) [Example 173, N-(1-Adamantylmethyl)-2-[3-(ethylamino)propyl]quinoline-5-carboxamide Dihydrochloride] |
| 130 to 135 °C | O=C(CC12CC3CC(CC(C3)C1)C2)Nc1cccc2nc(CCCNCCCO)ccc12 (as salt: hydrochloride) [Example 177, 2-(1-Adamantyl)-N-(2-{3-[(3-hydroxypropyl)amino]propyl}quinolin-5-yl)acetamide Dihydrochloride] |
| 147 to 148 °C (dec.) | O=C(NCC12CC3CC(CC(C3)C1)C2)c1cc(CCCNCCCO)nc2ccccc12 (as salt: salt) [Example 168, N-(1-Adamantylmethyl)-2-{3-[(3-hydroxypropyl)amino]propyl}quinoline-4-carboxamide Benzoic Acid Salt] |
| 103 to 107 °C | Cc1ccc2nc(NCCO)ccc2c1NC(=O)CC12CC3CC(CC(C3)C1)C2 (as salt: trifluoroacetic acid salt) [Example 13, 2-(1-Adamantyl)-N-{2[(2-hydroxyethyl)amino]-6-methylquinolin-5-yl}acetamide] |
| 168 to 174 °C | Cc1ccc2nc(NCCCO)ccc2c1NC(=O)CC12CC3CC(CC(C3)C1)C2 [Example 12, 2(1-Adamantyl)-N-{2-[(3-hydroxypropyl)amino]-6-methylquinolin-5-yl}acetamide] |
| 217 to 224 °C | CNCCCNc1ccc2c(NC(=O)CC34CC5CC(CC(C5)C3)C4)c(C)ccc2n1 [Example 204, 2-(1-Adamantyl)-N-(6-methyl-2-{[3-(methylamino)propyl]amino}quinolin-5-yl)acetamide] |
